Assay: Biodistribution of 188Re-labelled compounds in lipiodol solution in mice after tail vein injection
Type: in vivo
Conditions: mice (ICR)
Method: To the ^188Re-labelled reaction mixture prepared in the foregoing Examples 4 to 6, lipiodol (5 ml) was added, mixed well and the solution was centrifuged at 3000 rpm for 10 min. The supernatant was removed and 2 ml saline was added. After mixing well, the resulting solution was centrifuged again at 3000 rpm for 10 min and the supernatant was removed to recover a lower phase of lipiodol.
Mice (ICR) were administered with an injection of ^188Re-labelled compound in lipiodol solution which was prepared in the Example 7 via the tail vein. Radioactivity distributed in tissues and weight of each tissue were measured to calculate the percentage of radioactivity per gram of unit tissue relative to total radioactivity administered.
As radiation accumulation mechanism in the lung and the liver cancer are similar, it is convenient to detect the level of radiation accumulating in the lung of a mouse suffering from liver cancer. […] Therefore, it can be inferred that a radiorhenium complex of a diaminedithiol derivative having a long side chain is effective for treating liver cancer.

## CCCCCCCC[N+]12CC[N]3CC(C)(C)[S][188Re-]31(=[O])[S]C(C)(C)C2 (stereo not shown) [^188Re-OTDD]
10 min post-injection
  Biodistribution, radioactivity in Blood: 5.2 ± 1.8 percentage of radioactivity per gram
  Biodistribution, radioactivity in Fat: 3.6 ± 0.7 percentage of radioactivity per gram
  Biodistribution, radioactivity in Heart: 6.3 ± 1.7 percentage of radioactivity per gram
  Biodistribution, radioactivity in Kidney: 8.0 ± 1.2 percentage of radioactivity per gram
  Biodistribution, radioactivity in Liver: 15.1 ± 2.4 percentage of radioactivity per gram
  Biodistribution, radioactivity in Lung: 138.4 ± 19.8 percentage of radioactivity per gram
  Biodistribution, radioactivity in Muscle: 1.5 ± 0.2 percentage of radioactivity per gram
  Biodistribution, radioactivity in Small intestine: 3.6 ± 0.3 percentage of radioactivity per gram
  Biodistribution, radioactivity in Spleen: 2.6 ± 0.3 percentage of radioactivity per gram
  Biodistribution, radioactivity in Stomach: 3.5 ± 1.3 percentage of radioactivity per gram
30 min post-injection
  Biodistribution, radioactivity in Blood: 3.8 ± 0.4 percentage of radioactivity per gram
  Biodistribution, radioactivity in Fat: 2.2 ± 0.2 percentage of radioactivity per gram
  Biodistribution, radioactivity in Heart: 4.4 ± 0.3 percentage of radioactivity per gram
  Biodistribution, radioactivity in Kidney: 6.6 ± 0.3 percentage of radioactivity per gram
  Biodistribution, radioactivity in Liver: 21.6 ± 4.9 percentage of radioactivity per gram
  Biodistribution, radioactivity in Lung: 97.4 ± 20.7 percentage of radioactivity per gram
  Biodistribution, radioactivity in Muscle: 1.2 ± 0.2 percentage of radioactivity per gram
  Biodistribution, radioactivity in Small intestine: 8.0 ± 2.0 percentage of radioactivity per gram
  Biodistribution, radioactivity in Spleen: 2.3 ± 0.1 percentage of radioactivity per gram
  Biodistribution, radioactivity in Stomach: 12.9 ± 6.6 percentage of radioactivity per gram
1 hr post-injection
  Biodistribution, radioactivity in Blood: 3.1 ± 0.5 percentage of radioactivity per gram
  Biodistribution, radioactivity in Fat: 1.6 ± 0.4 percentage of radioactivity per gram
  Biodistribution, radioactivity in Heart: 2.7 ± 1.0 percentage of radioactivity per gram
  Biodistribution, radioactivity in Kidney: 5.6 ± 0.9 percentage of radioactivity per gram
  Biodistribution, radioactivity in Liver: 20.1 ± 3.3 percentage of radioactivity per gram
  Biodistribution, radioactivity in Lung: 87.0 ± 13.2 percentage of radioactivity per gram
  Biodistribution, radioactivity in Muscle: 0.9 ± 0.2 percentage of radioactivity per gram
  Biodistribution, radioactivity in Small intestine: 13.0 ± 3.7 percentage of radioactivity per gram
  Biodistribution, radioactivity in Spleen: 1.9 ± 0.6 percentage of radioactivity per gram
  Biodistribution, radioactivity in Stomach: 11.1 ± 3.1 percentage of radioactivity per gram
3 hr post-injection
  Biodistribution, radioactivity in Blood: 2.8 ± 0.3 percentage of radioactivity per gram
  Biodistribution, radioactivity in Fat: 1.3 ± 0.4 percentage of radioactivity per gram
  Biodistribution, radioactivity in Heart: 1.9 ± 0.4 percentage of radioactivity per gram
  Biodistribution, radioactivity in Kidney: 4.0 ± 0.5 percentage of radioactivity per gram
  Biodistribution, radioactivity in Liver: 19.7 ± 6.7 percentage of radioactivity per gram
  Biodistribution, radioactivity in Lung: 61.6 ± 10.0 percentage of radioactivity per gram
  Biodistribution, radioactivity in Muscle: 0.5 ± 0.1 percentage of radioactivity per gram
  Biodistribution, radioactivity in Small intestine: 23.4 ± 0.3 percentage of radioactivity per gram
  Biodistribution, radioactivity in Spleen: 1.8 ± 0.3 percentage of radioactivity per gram
  Biodistribution, radioactivity in Stomach: 15.5 ± 6.6 percentage of radioactivity per gram
24 hr post-injection
  Biodistribution, radioactivity in Blood: 0.6 ± 0.0 percentage of radioactivity per gram
  Biodistribution, radioactivity in Fat: 0.4 ± 0.1 percentage of radioactivity per gram
  Biodistribution, radioactivity in Heart: 0.7 ± 0.1 percentage of radioactivity per gram
  Biodistribution, radioactivity in Kidney: 1.5 ± 0.4 percentage of radioactivity per gram
  Biodistribution, radioactivity in Liver: 7.3 ± 1.5 percentage of radioactivity per gram
  Biodistribution, radioactivity in Lung: 22.8 ± 3.3 percentage of radioactivity per gram
  Biodistribution, radioactivity in Muscle: 0.2 ± 0.0 percentage of radioactivity per gram
  Biodistribution, radioactivity in Small intestine: 19.8 ± 12.0 percentage of radioactivity per gram
  Biodistribution, radioactivity in Spleen: 2.0 ± 2.0 percentage of radioactivity per gram
  Biodistribution, radioactivity in Stomach: 3.6 ± 1.8 percentage of radioactivity per gram

## CCCCCCCCCCCCCCCC[N+]12CC[N]3CC(C)(C)[S][188Re-]31(=[O])[S]C(C)(C)C2 (stereo not shown) [^188Re-HTDD]
10 min post-injection
  Biodistribution, radioactivity in Blood: 8.1 ± 1.5 percentage of radioactivity per gram
  Biodistribution, radioactivity in Fat: 3.9 ± 1.5 percentage of radioactivity per gram
  Biodistribution, radioactivity in Heart: 9.4 ± 3.0 percentage of radioactivity per gram
  Biodistribution, radioactivity in Kidney: 7.0 ± 1.8 percentage of radioactivity per gram
  Biodistribution, radioactivity in Liver: 11.6 ± 1.7 percentage of radioactivity per gram
  Biodistribution, radioactivity in Lung: 211.3 ± 30.0 percentage of radioactivity per gram
  Biodistribution, radioactivity in Muscle: 1.9 ± 0.3 percentage of radioactivity per gram
  Biodistribution, radioactivity in Small intestine: 3.4 ± 0.5 percentage of radioactivity per gram
  Biodistribution, radioactivity in Spleen: 3.6 ± 0.8 percentage of radioactivity per gram
  Biodistribution, radioactivity in Stomach: 7.4 ± 1.6 percentage of radioactivity per gram
30 min post-injection
  Biodistribution, radioactivity in Blood: 9.1 ± 5.3 percentage of radioactivity per gram
  Biodistribution, radioactivity in Fat: 2.8 ± 0.5 percentage of radioactivity per gram
  Biodistribution, radioactivity in Heart: 6.0 ± 1.1 percentage of radioactivity per gram
  Biodistribution, radioactivity in Kidney: 6.5 ± 0.9 percentage of radioactivity per gram
  Biodistribution, radioactivity in Liver: 15.9 ± 1.6 percentage of radioactivity per gram
  Biodistribution, radioactivity in Lung: 185.6 ± 20.9 percentage of radioactivity per gram
  Biodistribution, radioactivity in Muscle: 1.5 ± 0.2 percentage of radioactivity per gram
  Biodistribution, radioactivity in Small intestine: 6.5 ± 0.6 percentage of radioactivity per gram
  Biodistribution, radioactivity in Spleen: 3.1 ± 0.2 percentage of radioactivity per gram
  Biodistribution, radioactivity in Stomach: 15.1 ± 2.9 percentage of radioactivity per gram
1 hr post-injection
  Biodistribution, radioactivity in Blood: 4.2 ± 0.5 percentage of radioactivity per gram
  Biodistribution, radioactivity in Fat: 2.7 ± 0.6 percentage of radioactivity per gram
  Biodistribution, radioactivity in Heart: 4.7 ± 0.9 percentage of radioactivity per gram
  Biodistribution, radioactivity in Kidney: 6.1 ± 1.4 percentage of radioactivity per gram
  Biodistribution, radioactivity in Liver: 14.4 ± 2.5 percentage of radioactivity per gram
  Biodistribution, radioactivity in Lung: 177.8 ± 18.4 percentage of radioactivity per gram
  Biodistribution, radioactivity in Muscle: 1.1 ± 0.2 percentage of radioactivity per gram
  Biodistribution, radioactivity in Small intestine: 9.3 ± 1.0 percentage of radioactivity per gram
  Biodistribution, radioactivity in Spleen: 3.0 ± 0.8 percentage of radioactivity per gram
  Biodistribution, radioactivity in Stomach: 21.0 ± 1.7 percentage of radioactivity per gram
3 hr post-injection
  Biodistribution, radioactivity in Blood: 2.8 ± 0.5 percentage of radioactivity per gram
  Biodistribution, radioactivity in Fat: 2.0 ± 0.6 percentage of radioactivity per gram
  Biodistribution, radioactivity in Heart: 4.5 ± 0.8 percentage of radioactivity per gram
  Biodistribution, radioactivity in Kidney: 6.2 ± 1.2 percentage of radioactivity per gram
  Biodistribution, radioactivity in Liver: 9.0 ± 1.8 percentage of radioactivity per gram
  Biodistribution, radioactivity in Lung: 157.3 ± 28.6 percentage of radioactivity per gram
  Biodistribution, radioactivity in Muscle: 0.8 ± 0.2 percentage of radioactivity per gram
  Biodistribution, radioactivity in Small intestine: 12.2 ± 1.3 percentage of radioactivity per gram
  Biodistribution, radioactivity in Spleen: 2.7 ± 0.1 percentage of radioactivity per gram
  Biodistribution, radioactivity in Stomach: 19.3 ± 4.0 percentage of radioactivity per gram
24 hr post-injection
  Biodistribution, radioactivity in Blood: 0.6 ± 0.1 percentage of radioactivity per gram
  Biodistribution, radioactivity in Fat: 0.8 ± 0.3 percentage of radioactivity per gram
  Biodistribution, radioactivity in Heart: 2.2 ± 0.8 percentage of radioactivity per gram
  Biodistribution, radioactivity in Kidney: 3.3 ± 0.7 percentage of radioactivity per gram
  Biodistribution, radioactivity in Liver: 5.6 ± 1.0 percentage of radioactivity per gram
  Biodistribution, radioactivity in Lung: 118.0 ± 19.5 percentage of radioactivity per gram
  Biodistribution, radioactivity in Muscle: 0.4 ± 0.1 percentage of radioactivity per gram
  Biodistribution, radioactivity in Small intestine: 6.2 ± 3.4 percentage of radioactivity per gram
  Biodistribution, radioactivity in Spleen: 9.3 ± 5.2 percentage of radioactivity per gram
  Biodistribution, radioactivity in Stomach: 5.5 ± 1.7 percentage of radioactivity per gram
